According to publication PMC12624794, “Mechanism of inhibition of acid-mediated transthyretin aggregation by designed peptides” (The Journal of Biological Chemistry, 2025):

Key:
[1] = biological target: T1, TTR^F (C10S-trifluoroacetyl-S85C TTR) (Homo sapiens, UniProt P02766, C30S/S105C); assay: Real-time 19F-NMR aggregation kinetics at 310 K, pH 4.4 (three-state model); format: biochemical; conditions: 1 μM peptide; pH 4.4, 310 K
T1 construct: made in house
Method: At acidic pH, tetramer dissociation is favored, the misfolding of the monomeric intermediate is facilitated, and the downhill aggregation is accelerated ([1]). We used a previously reported ^19F-labeled TTR construct, C10S-trifluoroacetyl-S85C (denoted as TTR^F), to quantify TTR aggregation kinetics using real-time ^19F-NMR. […] To quantify how the presence of peptides alters TTR aggregation kinetics, we added 1 μM of each TabH2 and TabF2 as well as 1 μM ffTAD1 to 2.5 μM TTR^F (tetramer concentration) at pH 4.4 and 310 K and monitored time-dependent population kinetics for tetramer, monomer, and NMR-invisible aggregates (Fig. 3, A and B). […]
To gain kinetic insights into the aggregation pathway, we fit the time-dependent aggregation data of TTR^F using a previously reported three-state kinetic model, tetramer ↔ monomer ↔ aggregate ([18]), where tetramer and monomer are NMR-visible, and aggregates are NMR-invisible. […] Using this model, fits of the time-dependent population changes determined from peak areas yield four first-order apparent rates. […]
^19F-NMR spectra were acquired using Bruker Avance 600 or Avance 700 MHz spectrometers as previously described ([18]). […] Weighted average chemical shift perturbations (CSPs) for backbone amides were calculated using (Δδ^1H)^2+(Δδ^15N/5)^2 , where Δ δ means chemical shift differences for either ^1H or ^15N with and without peptides.

[2] = system: seeded TTR aggregation; conditions: extracted amyloidogenic fibrils from patients as seeds, in vitro; cited from earlier work
[3] = system: patients with TTR amyloidosis; conditions: TTR amyloidosis diagnosed at a later stage; cited from earlier work
From the text: (§1) However, the efficacy of tafamidis is reduced for patients with TTR amyloidosis diagnosed at a later stage, when severe organ damage caused by TTR aggregates cannot be reversed ([12]).

[4] = system: TTR tetramer; conditions: cited from earlier work
From the text: as §1

Which “reduction of steady-state population of NMR-invisible aggregates vs TTR^F-only control” value [1] does the source give for `CC(C)[C@H](NC(=O)[C@H](C)NC(=O)[C@H](Cc1ccc(O)cc1)NC(=O)[C@H](CO)NC(=O)[C@@H](NC(=O)[C@@H]1CCCN1C(=O)[C@H](CC(N)=O)NC(=O)[C@@H](NC(=O)[C@@H](NC(=O)[C@H](Cc1ccc(O)cc1)NC(=O)[C@H](CO)NC(=O)[C@H](CCCNC(=N)N)NC(=O)[C@H](CCCNC(=N)N)NC(=O)[C@H](CCCNC(=N)N)NC(=O)[C@H](CCCNC(=N)N)NC(=O)[C@H](CCC(=O)O)NC(=O)[C@@H](NC(=O)[C@H](CO)NC(=O)CNC(=O)CNC(=O)CNC(=O)[C@H](CCC(=O)O)NC(=O)[C@@H](NC(=O)[C@H](Cc1ccccc1)NC(=O)[C@H](CCC(=O)O)NC(=O)[C@@H](NC(=O)[C@H](Cc1ccccc1)NC(=O)[C@@H]1CCCN1C(=O)[C@H](Cc1c[nH]cn1)NC(=O)[C@H](C)NC(=O)[C@@H](NC(=O)[C@H](Cc1c[nH]cn1)NC(=O)[C@H](CCCNC(=N)N)NC(=O)[C@H](CCCNC(=N)N)NC(=O)[C@H](CCCNC(=N)N)NC(=O)[C@H](CCCNC(=N)N)NC(=O)[C@H](Cc1c[nH]cn1)NC(=O)[C@H](Cc1c[nH]cn1)NC(=O)[C@H](Cc1c[nH]cn1)NC(=O)[C@H](Cc1c[nH]cn1)NC(=O)[C@H](Cc1c[nH]cn1)NC(=O)[C@@H](N)Cc1c[nH]cn1)C(C)C)C(C)C)[C@@H](C)O)[C@@H](C)O)C(C)C)[C@@H](C)O)[C@@H](C)O)C(=O)N[C@H](C(=O)O)[C@@H](C)O` [ffTAD1] here?
The value was ~8%.

Which “inhibition of seeded TTR aggregation” value [2] does the source give for `O=C(O)c1ccc2nc(-c3cc(Cl)cc(Cl)c3)oc2c1` [Tafamidis] here?
The value was “does not effectively inhibit seeded TTR aggregation”.

And the “efficacy in late-diagnosed patients” value [3]?
The value was “reduced”.

What about the “binding to TTR tetramer” value [4] of the same compound?
The value was “binds to the central cavity of the TTR tetramer”.

And the “effect on tetramer dissociation” value ([4]; stabilization of the tetramer)?
The value was “suppresses dissociation to monomers”.
